# Measured values as given in ChEMBL document CHEMBL3045716, “Isolation and characterization of n-octacosanoic acid from Viburnum foetens: a novel antibiofilm agent against Streptococcus Mutans” (2012).
# Active and inactive are the calls of the source. The calls are words filed in the database; no cut-off is given here.
# Experiments:
# Streptococcus mutans [1] = assay: Inhibition of Streptococcus mutans UA159 biofilm formation assessed as conversion of carbohydrates to organic acid measured as pH at 2.5 ug/ml; assay type: functional
# Streptococcus mutans [2] = assay: Inhibition of Streptococcus mutans UA159 cell surface hydrophobicity at 20 ug/ml by spectrophotometry (reference value: 88.01 +/- 1.94%); assay type: functional
# [3] = target: T1, Glucosyltransferase-SI (Streptococcus mutans serotype c (strain ATCC 700610 / UA159)) (UniProt P13470); assay: Inhibition of Streptococcus mutans UA159 Glucosyltransferase assessed as water-insoluble glucan production using sucrose as substrate at 2.5 ug/ml after 24 hr
# T1 sequence (whole entry): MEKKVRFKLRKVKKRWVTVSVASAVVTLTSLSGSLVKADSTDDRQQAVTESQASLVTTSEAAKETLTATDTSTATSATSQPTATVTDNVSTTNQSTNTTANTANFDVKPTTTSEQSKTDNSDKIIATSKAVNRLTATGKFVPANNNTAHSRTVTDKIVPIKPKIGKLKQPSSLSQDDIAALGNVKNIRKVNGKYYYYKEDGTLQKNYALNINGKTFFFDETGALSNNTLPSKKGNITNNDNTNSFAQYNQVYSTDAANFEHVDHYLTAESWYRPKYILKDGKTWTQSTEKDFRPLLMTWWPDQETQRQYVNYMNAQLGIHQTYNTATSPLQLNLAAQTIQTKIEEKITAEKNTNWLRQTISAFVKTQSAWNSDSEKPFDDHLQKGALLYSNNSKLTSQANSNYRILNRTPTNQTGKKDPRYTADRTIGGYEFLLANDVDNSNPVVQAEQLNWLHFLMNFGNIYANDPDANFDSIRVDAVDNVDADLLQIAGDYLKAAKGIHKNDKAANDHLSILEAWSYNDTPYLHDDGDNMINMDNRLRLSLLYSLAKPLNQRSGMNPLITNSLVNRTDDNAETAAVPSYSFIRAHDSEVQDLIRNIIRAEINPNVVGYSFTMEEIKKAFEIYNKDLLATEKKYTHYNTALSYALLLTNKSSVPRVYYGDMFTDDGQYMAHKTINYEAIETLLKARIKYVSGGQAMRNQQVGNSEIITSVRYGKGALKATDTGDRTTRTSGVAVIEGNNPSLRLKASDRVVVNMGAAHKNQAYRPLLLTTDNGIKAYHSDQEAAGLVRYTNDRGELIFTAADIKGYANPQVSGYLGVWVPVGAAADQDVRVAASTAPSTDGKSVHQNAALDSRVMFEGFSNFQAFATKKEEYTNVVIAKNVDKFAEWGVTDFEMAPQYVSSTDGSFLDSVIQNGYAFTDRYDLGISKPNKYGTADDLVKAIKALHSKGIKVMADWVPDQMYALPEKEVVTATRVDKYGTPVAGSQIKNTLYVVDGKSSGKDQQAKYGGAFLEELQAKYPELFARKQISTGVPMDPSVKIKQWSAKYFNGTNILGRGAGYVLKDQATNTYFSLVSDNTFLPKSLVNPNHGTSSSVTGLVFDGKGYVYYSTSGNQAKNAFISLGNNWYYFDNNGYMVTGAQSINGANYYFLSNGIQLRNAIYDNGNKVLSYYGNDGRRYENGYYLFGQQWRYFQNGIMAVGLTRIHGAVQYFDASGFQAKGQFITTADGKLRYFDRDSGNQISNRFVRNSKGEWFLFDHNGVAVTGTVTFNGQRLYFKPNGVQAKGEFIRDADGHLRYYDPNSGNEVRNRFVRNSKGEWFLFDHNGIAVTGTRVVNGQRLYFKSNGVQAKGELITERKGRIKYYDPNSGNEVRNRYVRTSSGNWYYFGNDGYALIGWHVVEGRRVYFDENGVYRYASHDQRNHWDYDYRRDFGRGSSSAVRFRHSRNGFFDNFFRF
# Streptococcus mutans [4] = assay: Inhibition of Streptococcus mutans UA159 biofilm formation assessed as conversion of carbohydrates to organic acid measured as pH at 1.25 ug/ml; assay type: functional
# Streptococcus mutans [5] = assay: Inhibition of Streptococcus mutans UA159 biofilm formation after 24 hr by crystal violet staining analysis; assay type: functional, organism-based
# Streptococcus mutans [6] = assay: Inhibition of Streptococcus mutans UA159 biofilm formation assessed as conversion of carbohydrates to organic acid measured as pH at 40 ug/ml; assay type: functional
# Streptococcus mutans [7] = assay: Inhibition of Streptococcus mutans UA159 biofilm formation at sub-MIC after 24 hr by crystal violet staining analysis; assay type: functional
# Streptococcus mutans [8] = assay: Inhibition of Streptococcus mutans UA159 biofilm formation after 24 hr at 20 ug/ml by crystal violet staining analysis; assay type: functional; details: UA159, 24 h
# Streptococcus mutans [9] = assay: Inhibition of Streptococcus mutans UA159 biofilm formation assessed as conversion of carbohydrates to organic acid measured as pH at 80 ug/ml; assay type: functional
# Streptococcus mutans [10] = assay: Inhibition of Streptococcus mutans UA159 biofilm formation assessed as conversion of carbohydrates to organic acid measured as pH at 10 ug/ml; assay type: functional
# Streptococcus mutans [11] = assay: Inhibition of sucrose-dependent adhesion of Streptococcus mutans UA159 to saliva-coated glass surface at 10 ug/ml by spectrophotometry; assay type: functional
# Streptococcus mutans [12] = assay: Antimicrobial activity against Streptococcus mutans UA159 after 24 hr by two-fold serial dilution method; assay type: functional; details: UA159, 24 h
# Streptococcus mutans [13] = assay: Inhibition of adhesion of Streptococcus mutans UA159 to saliva-coated glass surface at 0.156 to 5120 ug/ml by spectrophotometry; assay type: functional, organism-based
# Streptococcus mutans [14] = assay: Inhibition of sucrose-dependent adhesion of Streptococcus mutans UA159 to saliva-coated glass surface at 80 ug/ml by spectrophotometry; assay type: functional, organism-based
# Streptococcus mutans [15] = assay: Inhibition of Streptococcus mutans UA159 biofilm formation assessed as conversion of carbohydrates to organic acid measured as pH at 0.625 ug/ml; assay type: functional
# Streptococcus mutans [16] = assay: Inhibition of Streptococcus mutans UA159 cell surface hydrophobicity at 5 ug/ml by spectrophotometry (reference value: 88.01 +/- 1.94%); assay type: functional
# Streptococcus mutans [17] = assay: Inhibition of sucrose-dependent adhesion of Streptococcus mutans UA159 to saliva-coated glass surface at 1.25 ug/ml by spectrophotometry; assay type: functional
# Streptococcus mutans [18] = assay: Inhibition of Streptococcus mutans UA159 biofilm formation assessed as conversion of carbohydrates to organic acid measured as pH at 20 ug/ml; assay type: functional
# Streptococcus mutans [19] = assay: Inhibition of Streptococcus mutans UA159 biofilm formation assessed as conversion of carbohydrates to organic acid measured as pH at 0.312 ug/ml; assay type: functional
# Streptococcus mutans [20] = assay: Inhibition of Streptococcus mutans UA159 biofilm formation assessed as conversion of carbohydrates to organic acid measured as pH at 5 ug/ml; assay type: functional
# Streptococcus mutans [21] = assay: Inhibition of Streptococcus mutans UA159 biofilm formation assessed as inability of cells to aggregrate and form clumps at MIC after 24 hr by confocal laser scanning microscopic analysis; assay type: functional, organism-based
# Streptococcus mutans [22] = assay: Inhibition of Streptococcus mutans UA159 biofilm formation assessed as biofilm thickness at 20 ug/ml after 24 hr by confocal laser scanning microscopic analysis (reference value: 19.74 +/- 0.5 uM); assay type: functional
compound,measurement,setting,value
CCCCCCCCCCCCCCCCCCCCCCCCCCCC(=O)O [N-OCTACOSANOIC ACID],pH,Streptococcus mutans [1],5.68
same,inhibition at 20 µg/mL,Streptococcus mutans [2],20.1%
same,inhibition,[3],50%
same,pH,Streptococcus mutans [4],5.14
same,inhibition,Streptococcus mutans [5],Dose-dependent effect
same,pH,Streptococcus mutans [6],6.98
same,inhibition (INH),Streptococcus mutans [7],60%
same,inhibition at 20 µg/mL,Streptococcus mutans [8],50%
same,pH,Streptococcus mutans [9],7.55
same,pH,Streptococcus mutans [10],6.48
same,inhibition at 10 µg/mL,Streptococcus mutans [11],50%
same,MIC,Streptococcus mutans [12],80 mg/L
same,inhibition,Streptococcus mutans [13],Active
same,inhibition,Streptococcus mutans [14],Active
same,pH,Streptococcus mutans [15],4.94
same,inhibition at 5 µg/mL,Streptococcus mutans [16],48.4%
same,inhibition at 1.25 µg/mL,Streptococcus mutans [17],61.3%
same,pH,Streptococcus mutans [18],6.66
same,pH,Streptococcus mutans [19],4.65
same,pH,Streptococcus mutans [20],6.02
same,inhibition,Streptococcus mutans [21],Active
same,biofilm thickness,Streptococcus mutans [22],12.7 µm
